Patent publication US20180371076A1, “MATERNAL TH17 CELLS AND PSYCHIATRIC DISORDERS” (New York University, priority 2017, published 2018)
“Also recorded” adds a separate entry of the source.

Tests used:
IL-17a = IL-17a secretion by ex vivo cultured mononuclear cells (PMA/ionomycin); assay type: cell-based, mouse; conditions: vs PBS
Experimental: (§1) Cell preparation, Flow cytometry, ELISA. Embryos at each implantation site were dissected in ice-cold HBSS containing Ca^2+ and Mg^2+. Myometrium was first peeled off of the decidua and embryos were discarded. Dissected decidual and placental tissues were then minced and enzymatically dissociated in HBSS containing 0.28 Wunsch units (WU)/mL Liberase (Roche) and 30 μg/ml DNase I (Roche) for 30 min at 37° C. with intermittent mixing. Digested tissues were washed in PBS containing 5 mM EDTA and 5% fetal bovine serum and then incubated again in the same buffer for 15 min at 37° C. prior to filtration through a cell strainer. After separation on a discontinuous 40% & 80% Percoll gradient, the mononuclear cell fraction was treated with ACK lysis buffer (Lonza). Mononuclear cells (1×10^6 cells/mL) were stimulated with phorbol 12-myristate 13-acetate (PMA, 50 ng/mL; Sigma), ionomycin (500 ng/mL; Sigma) in T cell media: RPMI 1640 (Invitrogen) supplemented with 10% (v/v) heat-inactivated FBS (Hyclone), 50 U penicillin-streptomycin (Invitrogen), 2 mM glutamine, and 50 μM β-mercaptoethanol. Cell culture supernatant was used for ELISA analyses. For flow cytometry, cells were incubated for 5 h with PMA, ionomycin and GolgiStop (BD). […] For ELISA with sera and placenta/decidua extract, IL-6 (Ebioscience), IL-17a (Biolgened), and IL-10 (BD) were measured according to the manufacturer's protocol. […]

IL-17Ra mRNA = IL-17Ra mRNA in fetal brain (real-time PCR, in situ hybridization); assay type: in vivo, mouse; conditions: E14.5
Experimental: In Situ Hybridization. E14.5 embryos from PBS or poly(I:C)-treated mothers were collected in ice-cold PBS and subsequently fixed in 4% paraformaldehyde for 4 h at 4° C. Isolated brains were dehydrated in 30% sucrose/PBS solution overnight, and then embedded in Tissue Tek O.C.T. compound (Sakura Finetek, Torrance, Calif.). The blocks were sectioned at 16-μm thickness using a cryostat (Leica). Fluorescent in situ hybridization was performed using a branched cDNA probe with amplification technology (ViewRNA ISH Tissue Assay kit, Panomics, Santa Clara) according to the manufacturer's protocol. […]
Real-Time PCR Total RNA was extracted from the cerebral cortex of E14.5 fetal brain of male embryo (RNase plus mini kit, Qiagen) as well as from the decidua- and the placenta-derived mononuclear cells and reverse transcribed into cDNA using oligodT (ProtoScript first strand cDNA synthesis kit, NEB) according to the manufacturer's instructions. mRNA levels of target genes (il17ra, il17rc, il17a and il6) were quantified with a Real-Time PCR System (CFX connect Real-Time PCR, Bio-Rad) using fluorescent SYBR Green technology (Bio-Rad). […] Changes in relative gene expression normalized to gapdh or actin levels were determined using the relative threshold cycle method based on the Cont-PBS group. […]

IL-6 = IL-6 ELISA of maternal serum; assay type: in vivo, mouse; conditions: poly(I:C) 20 mg/kg i.p. at E12.5, 3 h, vs PBS
Experimental: as §1

[1] = Properties of the litter (gender ratio, litter size, offspring weight); assay type: in vivo, mouse; conditions: PBS vs poly(I:C), control vs anti-IL-17a treated dams

poly(I:C)
IL-17a secretion by placenta/decidua-associated mononuclear cells (IL-17a; cells from poly(I:C)-treated dams, ex vivo PMA and ionomycin): increased IL-17a secretion; also recorded: enhanced secretion of IL-17a
IL-17a secretion by small intestine mononuclear cells (IL-17a; cells from poly(I:C)-treated pregnant dams): did not exhibit higher levels of IL-17a secretion; also recorded: did not secrete more IL-17a
IL-17Ra mRNA in fetal brain (real-time PCR) (IL-17Ra mRNA; induction of MIA): strongly augmented
IL-17Ra mRNA in fetal brain cortex (in situ hybridization) (IL-17Ra mRNA; poly(I:C) injection of pregnant dams): strongly up-regulated
serum IL-6 (IL-6): strong induction
gender ratios, litter sizes and weights [1]: not affected
